In patent US9381175B2, “Method for treating Chikungunya virus infection” (priority 2014, dated 2016):

Experiments:
[1] = test system: cell fusion of Sf21 cells infected with CS-WT viruses (CHIKV); assay: Cell fusion assay, Sf21 cells infected with recombinant baculovirus CS-WT; settings: for inhibition of cell fusion induced by CS-WT infection, primary screening: Sf21 cells, screening of drug library, antiviral agents and synthetic peptides, data not shown; for inhibition of cell fusion in CS-WT infected Sf21 cells: 5 mg/mL, 2 hours, pH 5.8, FIG. 11; for inhibition of the membrane fusion of Chikungunya viruses (summary of screening result): bicistronic baculovirus expression system in Sf21 cells
CHIKV [2] = assay: Immunofluorescence assay of CHIKV infection in BHK-21 cells; type: cell-based, Chikungunya virus
BHK-21 cells = assay: Cytotoxicity assay (crystal violet); type: cell-based; settings: 1,000 μg/ml, BHK-21, 2 days, crystal violet OD 540, FIG. 18 left panel
Method: 10^5 BHK-21 cells per well of 96-well plate were cultured with 2% FCS DMEM. For cykotoxicity assay, cells were cultured in the presence or absence of drug at various concentrations in duplication for 2 days. For cell protection assay, cells were infected with CHIKV at moi of 0.05 in the presence or absence of drugs at various concentrations in duplication for 2 days. Cells were then stained with 0.1% crystal violet solution to observe clearance of the cell monolayer caused by the cytotoxic or cytopathic effect. Crystal violet was quantified by optical density (OD) 540.

CHIKV [3] = assay: Western blot of CHIKV structural protein production in BHK-21 cells; settings: FIG. 14
CHIKV [4] = assay: Cell protection assay against CHIKV infection (crystal violet); type: cell-based, Chikungunya virus; settings: BHK-21, moi 0.05, 2 days, FIG. 18
VEEV-TC83 = type: cell-based, Venezuelan equine encephalitis virus
[5] = test system: cell fusion of Sf21 cells infected with VS-TC83 (VEEV-TC83) viruses; type: cell-based, Venezuelan equine encephalitis virus; settings: for inhibition of fusion (fusion index) of Sf21 cells infected with VS-TC83 viruses: pH 5.8

## O=C1[C@H](CC[C@H](O)c2ccc(F)cc2)[C@@H](c2ccc(O)cc2)N1c1ccc(F)cc1 [ezetimibe]
[1]
  inhibition of cell fusion induced by CS-WT infection, primary screening: failed to inhibit the cell fusion

## NC(=O)c1ncn([C@@H]2O[C@H](CO)[C@@H](O)[C@H]2O)n1 [ribavirin]
CHIKV [2]; 12.5 μg/ml, BHK-21, M.O.I. 1, 20 hours, FIG. 15
  inhibition of CHIKV infection in vitro (E2 immunofluorescence), comparison with suramin: inhibition efficacy of suramin is higher than that of ribavirin

## Cc1ccc(C(=O)Nc2ccc(S(=O)(=O)O)c3cc(S(=O)(=O)O)cc(S(=O)(=O)O)c23)cc1NC(=O)c1cccc(NC(=O)Nc2cccc(C(=O)Nc3cc(C(=O)Nc4ccc(S(=O)(=O)O)c5cc(S(=O)(=O)O)cc(S(=O)(=O)O)c45)ccc3C)c2)c1 [suramin]
BHK-21 cells
  cytotoxicity: minimal cytotoxicity
[1]; 55 μM, FIG. 13
  inhibitory effect on cell fusion (fusion index): minimal
[1]
  inhibition of cell fusion in CS-WT infected Sf21 cells: remarkably inhibited the cell fusion
  inhibition of cell fusion induced by CS-WT infection, primary screening: substantially inhibited the cell fusion
  inhibition of the membrane fusion of Chikungunya viruses (summary of screening result): block the membrane fusion
[1]; 3,500, 875, 219 or 55 μM, FIG. 12/13
  inhibitory efficacy on cell fusion (fusion index), dose dependence: inhibitory efficacy of suramin increases as the concentration of suramin increases
CHIKV [3]; 44 μM, BHK-21 cells
  inhibitory effect on the production of the structural proteins of CHIKV: only marginal inhibitory effect
CHIKV [3]; BHK-21 cells, 10,000 PFU CHIKV, 20 hours
  inhibitory effect on the production of the structural proteins of CHIKV, dose dependence: dose-dependency of the inhibitory effect
CHIKV [2]; 175 μM (2.5 mg/mL), BHK-21, M.O.I. 1, 20 hours, FIG. 15
  inhibition of CHIKV infection in vitro (E2 immunofluorescence): inhibit CHIKV infection in vitro
CHIKV [2]; 5 mg/mL (350 μM), immunofluorescence, FIG. 17 panels A-C
  time-of-addition: stage in which the inhibition activity takes place: 0-2 hours post infection
CHIKV [2]; 5 mg/mL (350 μM), immunofluorescence, FIG. 17 panels D-F
  time-of-addition: inhibitory effect on addition at a later stage: almost no inhibitory effect
CHIKV [2]; BHK-21, 2,000 PFU CHIKV, 20 hours, FIG. 16
  in vitro inhibition efficacy against CHIKV, dose dependence: increases as the concentration of suramin increases
CHIKV [2]; dose of less than 44 μM, FIG. 16 panel D
  in vitro inhibitory effect against CHIKV: marginal inhibitory effect
CHIKV [4]
  concentrations at which the cells are significantly protected from CHIKV infection: 15.6-1,000 μg/ml
  protection from the cytopathic effect of CHIKV infection: protects BHK-21 cells from the cytopathic effect

## carrageenan
[1]
  inhibition of cell fusion induced by CS-WT infection, primary screening: failed to inhibit the cell fusion

## chondroitin sulfate
[1]
  inhibition of cell fusion in CS-WT infected Sf21 cells: did not substantially inhibit the cell fusion

## dextran sulfate
[1]
  inhibition of the membrane fusion of Chikungunya viruses (summary of screening result): not effective to inhibit the membrane fusion
VEEV-TC83
  inhibition of VEEV-TC83 infection: elicited dose-dependent inhibition
[5]
  inhibition of cell fusion induced by VS-TC83 virus, dose dependence: inhibit the cell fusion induced by VS-TC83 virus in a dose-dependent manner
  inhibition of the membrane fusion of Venezuelan equine encephalitis virus (summary of screening result): can inhibit the membrane fusion
  inhibition of fusion (fusion index) of Sf21 cells infected with VS-TC83 viruses: substantially inhibit the fusion

## heparin
[1]
  inhibition of the membrane fusion of Chikungunya viruses (summary of screening result): not effective to inhibit the membrane fusion
VEEV-TC83
  inhibition of VEEV-TC83 infection: elicited dose-dependent inhibition
[5]
  inhibition of cell fusion induced by VS-TC83 virus, dose dependence: inhibit the cell fusion induced by VS-TC83 virus in a dose-dependent manner
  inhibition of the membrane fusion of Venezuelan equine encephalitis virus (summary of screening result): can inhibit the membrane fusion
  inhibition of fusion (fusion index) of Sf21 cells infected with VS-TC83 viruses: substantially inhibit the fusion
